# Test results reported in patent US9895322B2, “Pharmaceutical compositions for the delivery of substantially water-insoluble drugs” (priority 2012, dated 2018).
# Key:
# [1] = cited from earlier work; for water solubility: background statement
# [2] = system: Taxol resistant cell line; assay: cytopathic effects on Taxol resistant cell line (FIG. 10, 11); type: cell-based; conditions: 5 microgram/ml Taxol, FIG. 11
# Source text: FIG. 10A. A taxol resistant cell line without treatment (in vitro) showing aggressive growth. FIG. 10B. The same cell line treated with the hybrid taxol, showing cytopathic effects.
SMILES,water solubility [1],cytopathic effects at very low concentration [2],solubility in DMSO ([1]; DMSO) [mg/mL],solubility in water ([1]; estimated) [µM],"solubility in ethanol ([1]; ethanol, with warming) [mg/mL]"
CC1=C(/C=C/C(C)=C/C=C/C(C)=C/C(=O)O)C(C)(C)CCC1 [All-trans-retinoic acid],not water-soluble,,,,
"CC(=O)O[C@H]1C(=O)[C@@]2(C)[C@H]([C@H](OC(=O)c3ccccc3)[C@]3(O)C[C@H](OC(=O)[C@H](O)[C@@H](NC(=O)c4ccccc4)c4ccccc4)C(C)=C1C3(C)C)[C@]1(OC(C)=O)CO[C@@H]1C[C@@H]2O [Taxol, paclitaxel]",very poorly water-soluble,cytopathic effects are observed,,,
C=C(c1ccc(C(=O)O)cc1)c1cc2c(cc1C)C(C)(C)CCC2(C)C [Bexarotene],poorly soluble in water,,65,10 to 50,10
